The structures appear in SMILES notation.

This experiment relates to receptor-binding domain (RBD) of the SARS-CoV-2 spike. It counts as cell-based, human.

Regarding `CC/C=C\CC(O)\C=C/C=C/C=C/C(O)C/C=C\C/C=C\CCCCCCCCCCCCC(=O)O` [ELV-N32, (14Z,17Z,20R,21E,23E,25Z,27S,29Z)-20,27-dihydroxydo-triaconta-14,17,21,23,25,29-hexaenoic acid], the “RBD of the SARS-CoV-2 spike entrance / internalized RBD” value is given as “diminishes” and the “RBD protein internalization (RBD located below the membrane line)” value was “decrease”.
